Drawing on patent publication US9241487B2, “Pyrimidine derivatives and use thereof as pesticides” (BAYER INTELLECTUAL PROPERTY GMBH, priority 2010, dated 2016), this text covers pest or weed control and chromatographic logP for 7 compounds.

The structures appear in SMILES notation.

The test system of data set [1] is Blumeria graminis fsp. hordei. Kind of data set: Blumeria graminis test (barley)/protective. In kind it is in vivo. The settings on record: 168 h, protective spray, evaluation 7 days after inoculation, read-out: Efficacy (%). Here is the method:
Blumeria graminis Test (Barley)/Protective
(§1) Solvent: 49 parts by weight of N,N-dimethylacetamide
(§2) Emulsifier: 1 part by weight of alkylaryl polyglycol ether
To produce a suitable preparation of active compound, 1 part by weight of active compound is mixed with the stated amounts of solvent and emulsifier, and the concentrate is diluted with water to the desired concentration. To test for protective activity, young plants are sprayed with the preparation of active compound at the stated application rate. After the spray coating has dried on, the plants are dusted with spores of Blumeria graminis fsp. hordei. The plants are placed in a greenhouse at a temperature of about 18° C. and a relative air humidity of about 80% to promote the development of mildew pustules. Evaluation follows 7 days after the inoculation. 0% means an efficacy which corresponds to that of the control, whereas an efficacy of 100% means that no infection is observed.
(§3) In this test, the following compounds according to the invention show, at an active compound concentration of 500 ppm, an efficacy of 70% or more: […]

In another data set the test system is Leptosphaeria nodorum. Kind of data set: Leptosphaeria nodorum test (wheat)/protective. In kind it is in vivo. Conditions: Parastagonospora nodorum, wheat plants, protective spray, evaluation 7-9 days after inoculation, read-out: Efficacy (%). How it is done:
Leptosphaeria nodorum Test (Wheat)/Protective
(§4) Solvent: 49 parts by weight of N,N-dimethylformamide
as §2
To produce a suitable preparation of active compound, 1 part by weight of active compound is mixed with the stated amounts of solvent and emulsifier, and the concentrate is diluted with water to the desired concentration. To test for protective activity, young wheat plants are sprayed with the preparation of active compound at the stated application rate. 1 day after the treatment, the plants are inoculated with an aqueous spore suspension of Leptosphaeria nodorum and then remain at 100% relative atmospheric humidity and 22° C. for 48 h. The plants are then placed in a greenhouse at 90% relative atmospheric humidity and a temperature of 22° C. Evaluation is carried out 7-9 days after the inoculation. 0% means an efficacy which corresponds to that of the control, whereas an efficacy of 100% means that no infection is observed. In this test, the following compounds according to the invention show, at an active compound concentration of 500 ppm, an efficacy of 70% or more: […]

The test system of a further data set is Sphaerotheca fuliginea. Nature of the data set: Sphaerotheca test (cucumber)/protective. It is filed as in vivo. The settings on record: Podosphaera fuliginea, 168 h, cucumber plants, protective spray, evaluation 7 days after inoculation, read-out: Efficacy (%). Here is the method:
Sphaerotheca Test (Cucumber)/Protective
as §4, §2
To produce a suitable preparation of active compound, 1 part by weight of active compound is mixed with the stated amounts of solvent and emulsifier, and the concentrate is diluted with water to the desired concentration. To test for protective activity, young cucumber plants are sprayed with the preparation of active compound at the stated application rate. 1 day after the treatment, the plants are inoculated with a spore suspension of Sphaerotheca fuliginea. The plants are then placed in a greenhouse at 70% relative air humidity and a temperature of 23° C. Evaluation follows 7 days after the inoculation. 0% means an efficacy which corresponds to that of the control, whereas an efficacy of 100% means that no infection is observed. In this test, the following compounds according to the invention show, at an active compound concentration of 500 ppm, an efficacy of 70% or more: […]

A further data set deals with Septoria tritici. Nature of the data set: Septoria tritici test (wheat)/protective. It is filed as in vivo. Conditions: Zymoseptoria tritici, 504 h, protective spray, evaluation 21 days after inoculation, read-out: Efficacy (%). How it is done: Septoria tritici Test (Wheat)/Protective
as §1, §2
(§5) To produce a suitable preparation of active compound, 1 part by weight of active compound is mixed with the stated amounts of solvent and emulsifier, and the concentrate is diluted with water to the desired concentration. To test for protective activity, young plants are sprayed with the preparation of active compound at the stated application rate. After the spray coating has dried on, the plants are sprayed with a spore suspension of Septoria tritici. The plants remain in an incubation cabin at 20° C. and 100% relative atmospheric humidity for 48 hours. Thereafter, the plants are placed under a translucent hood at 15° C. and 100% relative air humidity for a further 60 hours. The plants are placed in a greenhouse at a temperature of about 15° C. and a relative atmospheric humidity of about 80%. Evaluation follows 21 days after the inoculation. 0% means an efficacy which corresponds to that of the control, whereas an efficacy of 100% means that no infection is observed.
as §3

Another data set has as its system Alternaria solani. Kind of data set: Alternaria test (tomato)/protective. In kind it is in vivo. Conditions: 168 h, tomato plants, protective spray, evaluation 7 days after inoculation, read-out: Efficacy (%). How it is done: Alternaria Test (Tomato)/Protective
as §4, §2
To produce a suitable preparation of active compound, 1 part by weight of active compound is mixed with the stated amounts of solvent and emulsifier, and the concentrate is diluted with water to the desired concentration. To test for protective activity, young tomato plants are sprayed with the preparation of active compound at the stated application rate. 1 day after the treatment, the plants are inoculated with a spore suspension of Alternaria solani and then remain at 100% rd. humidity and 22° C. for 24 h. The plants then remain at 96% rd. atmospheric humidity and a temperature of 20° C. Evaluation is carried out 7 days after the inoculation. 0% means an efficacy which corresponds to that of the control, whereas an efficacy of 100% means that no infection is observed.
as §3

The nature of data set [2]: log P by HPLC on reversed-phase columns (C 18), EEC directive 79/831 Annex V.A8. It is filed as physicochemical. The settings on record: reversed-phase HPLC columns (C 18); method [a]: LC-MS, acidic range pH 2.7, 0.1% aqueous formic acid/acetonitrile, gradient 10% to 95% acetonitrile. How it is done:
The log P values were measured according to EEC directive 79/831 Annex V.A8 by HPLC (High Performance Liquid Chromatography) on reversed-phase columns (C 18), using the methods below: [a] The LC-MS determination in the acidic range is carried out at pH 2.7 with 0.1% aqueous formic acid and acetonitrile (contains 0.1% formic acid) as mobile phases; linear gradient from 10% acetonitrile to 95% acetonitrile.

In a further data set the test system is Puccinia triticina. Kind of data set: Puccinia triticina test (wheat)/protective. In kind it is in vivo. Conditions: 192 h, protective spray, evaluation 8 days after inoculation, read-out: Efficacy (%). How it is done:
Puccinia triticina Test (Wheat)/Protective
as §1, §2
as §5, with “sprayed with spores with a spore” for “sprayed with a spore”, “suspension of Puccinia triticina. The plants” for “suspension of Septoria tritici. The plants”, “48 hours. The plants” for “48 hours. Thereafter, the plants are placed under a translucent hood at 15° C. and 100% relative air humidity for a further 60 hours. The plants”, “of about 20° C. and” for “of about 15° C. and”, “Evaluation follows 8 days after” for “Evaluation follows 21 days after”
as §3

A further data set relates to Venturia inaequalis. Nature of the data set: Venturia test (apple)/protective. Conditions: 240 h, protective spray, evaluation 10 days after inoculation, read-out: Efficacy (%). It is filed as in vivo. How it is done:
Venturia Test (Apple)/Protective
(§6) Solvents: 24.5 parts by weight of acetone
(§7) • 24.5 parts by weight of dimethylacetamide Emulsifier: 1 part by weight of alkylaryl polyglycol ether
(§8) To produce a suitable preparation of active compound, 1 part by weight of active compound is mixed with the stated amounts of solvent and emulsifier, and the concentrate is diluted with water to the desired concentration. To test for protective activity, young plants are sprayed with the preparation of active compound at the stated application rate. After the spray coating has dried on, the plants are inoculated with an aqueous conidia suspension of the apple scab pathogen Venturia inaequalis and then remain in an incubation cabin at approx. 20° C. and 100% relative air humidity for 1 day. The plants are then placed in the greenhouse at about 21° C. and a relative atmospheric humidity of about 90%. Evaluation follows 10 days after the inoculation. 0% means an efficacy which corresponds to that of the control, whereas an efficacy of 100% means that no infection is observed.
(§9) In this test, the following compounds according to the invention show, at an active compound concentration of 100 ppm, an efficacy of 70% or more: […]

Another data set concerns Uromyces appendiculatus. Kind of data set: Uromyces test (bean)/protective. It is filed as in vivo. The settings on record: 240 h, protective spray, evaluation 10 days after inoculation, read-out: Efficacy (%). How it is done: Uromyces Test (Bean)/Protective
as §6, §7
as §8, with “spore” for “conidia”, “bean rust” for “apple scab”, “Uromyces appendiculatus” for “Venturia inaequalis”, “about” for “approx.”, “atmospheric” for “air”
as §9

On to `CC(C)C(O)(CSc1ccc(SC(F)(F)F)cc1)c1cncnc1` (centres unmarked) [Compound 3], for which the pest or weed control at 500 ppm came to 100% in data set [1]; 90% in the data set with Leptosphaeria nodorum; 94% with Sphaerotheca fuliginea; 75% with Septoria tritici; 95% in the data set with Alternaria solani. Further, in [2], the chromatographic logP (as a rule, a lipophilicity value derived from retention on a column) is 3.28.

In the case of `CC1(C(O)(COc2ccc(SC(F)(F)F)cc2)c2cncnc2)CC1` (centres unmarked) [Compound 19], the pest or weed control at 500 ppm is 100% in [1]; 95% in the data set with Leptosphaeria nodorum; 100% with Puccinia triticina; 95% in the data set with Sphaerotheca fuliginea; 86% with Septoria tritici; 90% in the data set with Alternaria solani. Besides, in data set [2], the chromatographic logP stood at 3.3.

As for `CC(C)(C)C(O)(COc1ccc(OC(F)(F)F)cc1Cl)c1cncnc1` (centres unmarked) [Compound 29], the pest or weed control at 500 ppm amounted to 75% in the data set with Leptosphaeria nodorum, 100% in the data set with Sphaerotheca fuliginea and 78% in the data set with Alternaria solani. Besides, the chromatographic logP in data set [2] worked out at 3.47.

`Cc1cc(OC(F)(F)F)ccc1OCC(O)(c1cncnc1)C(C)(C)C` (centres unmarked) [Compound 30]: the pest or weed control at 500 ppm in data set [1] was 100%; with Leptosphaeria nodorum, 89%; in the data set on Puccinia triticina, 100%; with Sphaerotheca fuliginea, 100%; in the data set on Septoria tritici it was 71%; in the data set on Alternaria solani it was 90%. Further, the pest or weed control at 100 ppm amounted to 98% in the data set on Venturia inaequalis and 100% in the data set on Uromyces appendiculatus. Moreover, the chromatographic logP in [2] stood at 3.59.

Turning to `CC(C)(C)C(O)(COc1ccc(SC(F)(F)F)c(Cl)c1)c1cncnc1` (centres unmarked) [Compound 31], the pest or weed control at 500 ppm in the data set on Leptosphaeria nodorum came to 95%; in the data set on Sphaerotheca fuliginea, 100%; with Alternaria solani, 95%. In addition, the figures for the pest or weed control at 100 ppm with Venturia inaequalis and in the data set with Uromyces appendiculatus were 99% and 100%, respectively. This compound also yielded a chromatographic logP in data set [2] of 3.76.

Consider `CC(C)(C)C(O)(COc1ccc(S(=O)(=O)C(F)(F)F)cc1)c1cncnc1` (centres unmarked) [Compound 33], for which the pest or weed control at 500 ppm worked out at 100% in [1]; 94% in the data set on Leptosphaeria nodorum; 100% in the data set on Puccinia triticina; 95% with Sphaerotheca fuliginea; 89% in the data set with Alternaria solani. In addition, the results for the pest or weed control at 100 ppm in the data set on Venturia inaequalis and with Uromyces appendiculatus were 99% and 100%, respectively. Moreover, in data set [2], the chromatographic logP amounted to 2.82.

In the case of `CC(C)(C)C(O)(COc1ccc(OC(F)F)cc1)c1cncnc1` (centres unmarked) [Compound 34], the pest or weed control at 500 ppm in the data set on Leptosphaeria nodorum was 100%; in the data set on Sphaerotheca fuliginea, 95%; in the data set on Alternaria solani, 95%. In addition, in [2], the chromatographic logP was found to be 2.63.
